Assay results: PubChem BioAssay AID2060343 (Molecular Pharmacology Branch, DTP, NCI, 2025)

Tested on: 138582-337-R-J1-PDC spheroids with HUVEC/MSC, viability
Test: Anticancer human tumor 138582-337-R-J1-PDC patient-derived Merkel cell tumor cell line growth inhibition [IpAb]
Conditions: for IC50: curve of first compound; for viability, T/C: stronger effect = lower value
How it was run: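 Combinations with ipatasertib or abemaciclib were tested on tumour spheroids holding HUVEC (25%) and MSC (15%) alongside 60% malignant cells. Top concentration was at or near clinical Cmax (10 microM if undefined), descending in half-log steps.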
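Further: spheroids exposed to compounds for seven days.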
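Wherever viability, T/C is given: 100% = DMSO vehicle control viability.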

**Q.** What does the source list for `CC1(C)CCC(CN2CCN(c3ccc(C(=O)NS(=O)(=O)c4ccc(NCC5CCOCC5)c([N+](=O)[O-])c4)c(Oc4cnc5[nH]ccc5c4)c3)CC2)=C(c2ccc(Cl)cc2)C1` + CCN1CCN(Cc2ccc(Nc3ncc(F)c(-c4cc(F)c5nc(C)n(C(C)C)c5c4)n3)nc2)CC1?
**A.** IC50 (second compound 0.01 µM): > 10 µM; IC50 (second compound 0.0316 µM): > 10 µM; IC50 (second compound 0.1 µM): > 10 µM; IC50 (second compound 0.316 µM): > 10 µM; IC50 (second compound 1 µM): > 10 µM; viability, T/C (second compound 0.01 µM, first compound 0.0316 µM): 90.6%; viability, T/C (second compound 0.01 µM, first compound 0.1 µM): 83.3%; viability, T/C (second compound 0.01 µM, first compound 0.316 µM): 79.3%; viability, T/C (second compound 0.01 µM, first compound 1 µM): 83.7%; viability, T/C (second compound 0.01 µM, first compound 3.16 µM): 75.1%; viability, T/C (second compound 0.01 µM, first compound 10 µM): 83.2%; viability, T/C (second compound 0.0316 µM, first compound 0.0316 µM): 93.3%; viability, T/C (second compound 0.0316 µM, first compound 0.1 µM): 86.7%; viability, T/C (second compound 0.0316 µM, first compound 0.316 µM): 86.4%; viability, T/C (second compound 0.0316 µM, first compound 1 µM): 78.5%; viability, T/C (second compound 0.0316 µM, first compound 3.16 µM): 83.3%; viability, T/C (second compound 0.0316 µM, first compound 10 µM): 82.9%; viability, T/C (second compound 0.1 µM, first compound 0.0316 µM): 86.5%; viability, T/C (second compound 0.1 µM, first compound 0.1 µM): 79%; viability, T/C (second compound 0.1 µM, first compound 0.316 µM): 85%; viability, T/C (second compound 0.1 µM, first compound 1 µM): 80%; viability, T/C (second compound 0.1 µM, first compound 3.16 µM): 86.4%; viability, T/C (second compound 0.1 µM, first compound 10 µM): 89.5%; viability, T/C (second compound 0.316 µM, first compound 0.0316 µM): 85%; viability, T/C (second compound 0.316 µM, first compound 0.1 µM): 90.7%; viability, T/C (second compound 0.316 µM, first compound 0.316 µM): 81.7%; viability, T/C (second compound 0.316 µM, first compound 1 µM): 86.8%; viability, T/C (second compound 0.316 µM, first compound 3.16 µM): 90.8%; viability, T/C (second compound 0.316 µM, first compound 10 µM): 106%; viability, T/C (second compound 1 µM, first compound 0.0316 µM): 88.4%; viability, T/C (second compound 1 µM, first compound 0.1 µM): 86.3%; viability, T/C (second compound 1 µM, first compound 0.316 µM): 75.1%; viability, T/C (second compound 1 µM, first compound 1 µM): 81%; viability, T/C (second compound 1 µM, first compound 3.16 µM): 83.7%; viability, T/C (second compound 1 µM, first compound 10 µM): 109%
